Source: patent publication US20240366540A1, “MITOFUSIN INHIBITORS AND USES THEREOF” (Albert Einstein College of Medicine, priority 2021, published 2024)

Columns and labels:
MFN1 and MFN2 = MFN1 and MFN2 gene expression and protein levels; type: cell-based
Procedure: Western blot. Western blots were performed from whole cell lysates (WCL) prepared in lysis buffer containing 50 mM Tris-HCl pH 7.5, 1% Triton X-100, 150 mM NaCl, 5 mM MgCl2, 1 mM EGTA and 10% glycerol in the presence of protease inhibitor cocktail (Roche).
Analysis of mitochondrial biogenesis-related genes by q-PCR. Total RNA was extracted by using RNeasy Mini Kit (Qiagen) followed by cDNA synthesis using the SuperScript IV VILO Master Mix (Thermo Scientific), both performed according to the manufacturer's protocol. q-PCR was performed using the following primers: […]
For the q-PCR reaction, Power SYBR Green master mix (Thermo Scientific) was used according to the manufacturer's instructions. Briefly, each reaction consisted of 10 ng cDNA, 5 μL Power SYBR Green master mix, 200 nM primers (forward and reverse), and RNase-free water up to 10 μL. q-PCR was performed on the ViiA 7 Real-Time PCR System (Thermo Scientific) with the following cycle parameter: 95° C. for 10 min, 40 cycles of 95° C. for 15 s, and 60° C. for 1 min. q-PCR products were analyzed by melting curves for unspecific products or primer dimer formation. Rpl39 was used as housekeeping gene and 2^−ΔΔCT method was applied to determine the relative mRNAs expression.

mitochondrial biomass = assay: Mitochondrial biomass (Tomm20 protein, mitotracker green intensity, mitochondrial to nuclear DNA ratio); type: cell-based
Procedure: Western blot. Western blots were performed from whole cell lysates (WCL) prepared in lysis buffer containing 50 mM Tris-HCl pH 7.5, 1% Triton X-100, 150 mM NaCl, 5 mM MgCl2, 1 mM EGTA and 10% glycerol in the presence of protease inhibitor cocktail (Roche). WCL were separated on a 4-12% NuPAGE MES gel (Invitrogen), transferred into a PVDF membrane, block for 1 hr and immunoblot with the corresponding anti-bodies. Determination of mtDNA to genomic DNA ratio by q-PCR. DNA was extracted using DNeasy Blood and Tissue kit (Qiagen) according to the manufacturer's protocol. q-PCR was used to determine the ratio of mitochondrial DNA (mtDNA) and genomic DNA (gn DNA). The following primers were used for q-PCR reaction: […]

[1] = tested on: mitochondrial biogenesis markers; assay: Mitochondrial biogenesis markers by q-PCR; type: cell-based
Procedure: Analysis of mitochondrial biogenesis-related genes by q-PCR. Total RNA was extracted by using RNeasy Mini Kit (Qiagen) followed by cDNA synthesis using the SuperScript IV VILO Master Mix (Thermo Scientific), both performed according to the manufacturer's protocol. q-PCR was performed using the following primers: For the q-PCR reaction, Power SYBR Green master mix (Thermo Scientific) was used according to the manufacturer's instructions. […] Rpl39 was used as housekeeping gene and 2^−ΔΔCT method was applied to determine the relative mRNAs expression.

MEFs [2] = assay: Mitochondrial respiration in cellulo (OCR, Seahorse XF24); type: cell-based, mouse; details: WT MEFs; MASM7 1 μM or MFI8 20 μM, 6 hrs
Procedure: Mitochondrial respiration in cellulo. Mitochondrial oxygen consumption rates (OCR) were assessed using a XF24 Analyzer (Seahorse Biosciences, Billerica MA, USA). In brief, 3×10^4 MEFs were cultured in a XF24 cell culture microplate containing DMEM supplemented with 10% fetal bovine serum. […] OCR was normalized to cell number or total protein content per well for each condition tested.

MEFs [3] = assay: Mitochondrial depolarization assay (TMRE membrane potential); type: cell-based, mouse
Procedure: Mitochondrial depolarization assay (mtΔΨ). MEFs (10^4 cells/well) were seeded in a 96-well black plate and treated with MASM7 or MFI8 for 6 hrs. Following treatments, cells were stained with 250 nM TMRE (Sigma; Cat. 87917) for 20 min at 37° C. Subsequently, cells were washed with thrice with PBS. Fluorescence intensity was detected by a M100 microplate reader (TECAN, Ex: 540 nm/Em: 579 nm).

MEFs [4] = assay: RNA-seq gene expression; type: cell-based, mouse; details: RNA-seq
Text: RNA-seq. Sequencing results were demultiplexed and converted to FASTQ format using Illumina bcl2fastq software. The sequencing reads were adapter and quality trimmed with Trimmomatic and then aligned to the mouse genome (build mm10/GRCm38) using the splice-aware STAR aligner. The featureCounts program was utilized to generate counts for each gene based on how many aligned reads overlap its exons. These counts were then normalized and used to test for differential expression using negative binomial generalized linear models implemented by the DESeq2 R package.

MEFs [5] = assay: Metabolomics (TCA cycle carboxylic acids, NAD, NADH); type: cell-based, mouse
Procedure: Metabolomics. […] Cells were harvested using a cell scraper and centrifuged at 1200 rpm in 4° C. for 3 min. Each cell pellet sample was suspended into 250 to 700 μL of 80% aqueous methanol in an Eppendorf tube. The samples were vortex mixed for 15 s and sonicated in an ice-water bath for 5 min, followed by centrifugal clarification at 15,000 rpm and 5° C. in an Eppendorf […] centrifuge. The clear supernatants were collected. A standard stock solution of TCA cycle carboxylic acids, NAD and NADH was prepared in 80% methanol as S1. This standard solution S1 was serially diluted 1 to 4 (v/v) with the same solvent to make standard solutions S2 to S10. 20 μL of each standard solution and an aliquot of the clear supernatant from each cell was mixed with 20 μL of an internal standard solution containing 9 ^13C- or deuterium labeled analogues of the TCA cycle carboxylic acids (except isocitric acid), 20 μL of 200 mM 3-NPH solution and 20 μL of 150 mM of EDC solution. The mixtures were allowed to react at 30° C. for 30 min. After reaction, 120 μL of water was added to each solution. 10 μL of the resultant solutions was injected into a C18 UPLC column to quantitate the TCA cycle carboxylic acids by UPLC-MRM/MS with (-) ion detection, according to the procedure we described in a publication.

MEFs [6] = assay: Caspase-3/7 activation assay; type: cell-based, mouse; details: 6 hr, Caspase-Glo 3/7
Procedure: Caspase-3/7 activation assay. Cells (5×10^3 cells/well) were seeded in a 96-well white plate and treated with MASM7, MFI8. Caspase 3/7 activation was measured after 6 hr by addition of the Caspase-Glo 3/7 reagent according to the manufacturer's protocol (Promega). Luminescence was detected by a F200 PRO microplate reader (TECAN). Caspase assays were performed in at least triplicate and the data normalized to vehicle-treated control wells. Dilutions of MASM7 or MFI8 were performed using a TECAN D300e Digital Dispenser from 10 mM stocks.

cells = assay: Cell viability assay (CellTiter-Glo); type: cell-based; details: 72 hours
Procedure: Cell viability assay. […] Cell viability was assayed after 72 hrs by addition of CellTiter-Glo reagent according to the manufacturer's protocol (Promega). Luminescence was measured using a […] microplate reader (TECAN). Viability assays were performed in at least triplicate and the data normalized to vehicle-treated control wells.

MEFs [7] = assay: DNA damage, yH2AX immunofluorescence in MEFs; type: cell-based, mouse; details: 6 h
Procedure: Immunofluorescent analysis and microscopy. […] After treatments, cells were washed with PBS and fixed with 4% PFA for 15 min. […] After incubation with primary antibodies, cells were washed with PBS and incubated with the appropriate mouse secondary antibody (ThermoFisher Scientific; A-11001) in the blocking solution. After PBS washes, coverslips were dipped in water and mounted on glass slides using Vectashield containing DAPI (Vector laboratories). […] Data were analyzed with ImageJ.

MEFs [8] = assay: Mitochondrial aspect ratio (Mito AR), live cell imaging
Procedure: Live cell imaging. MEFs were seeded on chamber slides (MatTek Corporation: 35 mm dishes, No. 1.5, 14 mm glass diameter) at ˜70% confluence. […] Images were taken with Leica SP5 inverted confocal microscope. Data were analyzed with Image J software. >200 mitochondria were measured per condition in mitochondrial aspect ratio.
Measurement of mitochondrial aspect ratio (Mito AR). Images that depict stained mitochondria with mitotracker green were analyzed using FIJI We measured for each mitochondrion its length and width. Then, we divided the length by the width for each mitochondrion to get its mitochondrial aspect ratio. >200 mitochondria were measured per treatment.

[9] = MFN1/MFN2 DKO MEFs reconstituted with WT MFN2

## CC(Sc1nnc(C2CC2)n1-c1ccccc1)C(=O)Nc1sc2c(c1C(N)=O)CCC2 (stereo not shown) [MASM7, 2-(2-((5-cyclopropyl-4-phenyl-4H-1,2,4-triazol-3-yl)thio)propanamido)-5,6-dihydro-4H-cyclopenta[b]thiophene-3-carboxamide]
MFN1 and MFN2
  MFN1 and MFN2 gene expression and corresponding protein levels: neither MASM7 nor MFI8 altered
Mitochondrial biomass
  Tomm20 protein levels, mitotracker green intensity and mitochondrial to nuclear DNA ratio: neither MASM7 nor MFI8 altered
[1]
  gene expression levels of mitochondrial biogenesis markers: no alteration
MEFs [2]
  respiration and mitochondrial ATP production (OCR): increased basal and maximal respiration and mitochondrial ATP production
MEFs [3]; [9]
  mitochondrial membrane potential (TMRE): significantly increased mitochondrial membrane potential
MEFs [3]; WT MEFs, 6 hrs
  mitochondrial membrane potential (TMRE): concentration responsively increased mitochondrial membrane potential
MEFs [3]; co-treated with myxothiazol or rotenone
  compound-induced increase in mitochondrial membrane potential: revoked
MEFs [4]
  gene expression of subunits of the respiratory complexes: altered expression of selected genes of the respiratory complexes rather than inducing a consistent trend
MEFs [5]
  total NAD+/NADH ratio: no effect on total NAD^+/NADH ratio
MEFs [5]; UPLC-MRM/MS
  metabolites of the TCA cycle: no significant effect in the majority of the metabolites of the TCA cycle
MEFs [6]
  caspase-3/7 activity: no effect
cells
  cellular viability: neither MFI8 nor MASM7 decreased cellular viability
MEFs [7]; MFN1/MFN2 DKO MEFs
  DNA damage (yH2AX foci): did not induce DNA damage in any of the cell lines
MEFs [7]; WT MEFs
  DNA damage (yH2AX foci): did not induce DNA damage in any of the cell lines
MEFs [8]; MFN1/MFN2 DKO MEFs reconstituted with D725A/L727A or L727A MFN2 mutants
  mitochondrial aspect ratio: not when reconstituted with D725A/L727A or L727A MFN2 mutants
MEFs [8]; [9]
  mitochondrial aspect ratio: markedly increased mitochondrial aspect ratio
